Experimental data published in PMC3460366, “Synthesis and Antibacterial Evaluation of a New Series of N-Alkyl-2-alkynyl/(E)-alkenyl-4-(1H)-quinolones” (Molecules, 2012).
Values after ≈ are worked out from the molar mass of the structure shown. Values joined by “and” are separate entries in the source; they are usually repeats but may differ in a detail not shown here. Identical values can stand only once.

Assays:
[1] = test system: human diploid embryonic lung cell line MRC-5; assay: XTT cytotoxicity assay on MRC-5 cells; type: cell-based; conditions: XTT
Description: In order to assess the cytotoxicity of these novel quinolone derivatives, the effect on the viability of a human lung fibroblast cell line MRC-5, was measured using XTT proliferation assay. […] In addition, the position of the triple bond in the side chain seems to have a significant influence on cytotoxcity which is increased in compounds with a triple bond more distant to the quinolone nucleus. This can be concluded by comparing results of 8l, 8n, 8p, and 8r having similar antimycobacterial activity on M. smegmatis but different cytotoxcity depending on triple bond position.
The cytotoxic activity of the synthetic compounds was determined by means of an XTT Cell Proliferation Kit II (Roche Diagnostics, Mannheim, Germany) using the human diploid embryonic lung cell line MRC-5 [11]. The quinolone derivatives were tested at concentrations of 100, 60, 30 and 10 µM in triplicate and the percentage of viable cells at each concentration was determined by comparing with the control.

[2] = test system: M. smegmatis (ATCC 14468); assay: Microtiter broth dilution MIC against M. smegmatis (ATCC 14468); type: cell-based; conditions: Mycolicibacterium smegmatis, ATCC14468, 72 h, 37 °C, MTT
M. fortuitum (ATCC 6841) = assay: Broth dilution MIC against M. fortuitum; type: cell-based; conditions: Mycolicibacterium fortuitum, ATCC6841, 72 h
M. phlei (ATCC 11758) = assay: Broth dilution MIC against M. phlei; type: cell-based; conditions: Mycolicibacterium phlei, ATCC11758, 72 h
M. smegmatis mc^2155 = assay: Broth dilution MIC against M. smegmatis mc^2155; type: cell-based; conditions: Mycolicibacterium smegmatis, 72 h
[3] = test system: M. bovis BCG (ATCC 35734); assay: microbe, parasite or virus in culture; type: cell-based; conditions: Mycobacterium tuberculosis variant bovis BCG, 336 h, read-out: MIC M. bovis BCG
S. aureus EMRSA-15 = assay: Broth dilution MIC against EMRSA-15; type: cell-based; conditions: Staphylococcus aureus, EMRSA15, 18 h
S. aureus EMRSA-16 = assay: Broth dilution MIC against EMRSA-16; type: cell-based; conditions: Staphylococcus aureus, EMRSA16, 18 h

| Compound | Metabolic active MRC-5 cells (%) ([1]; 10 µM) | Metabolic active MRC-5 cells (%) ([1]; 30 µM) | Metabolic active MRC-5 cells (%) ([1]; 60 µM) | Metabolic active MRC-5 cells (%) ([1]; 100 µM) | MIC [2] | other results |
| --- | --- | --- | --- | --- | --- | --- |
| CCCCCCC#CCCc1cc(=O)c2ccccc2n1C [Compound 8a, 1-Methyl-2-(3′-decynyl)-4(1H)-quinolone] | 100 ± 1.05 | 98.4 ± 1.07 | 97.5 ± 0.74 | 89.3 ± 2.94 | 32 µg/mL and 108 µM |  |
| CCCCCCC#CCCc1cc(=O)c2ccccc2n1CC [Compound 8b, 1-Ethyl-2-(3'-decynyl)-4(1H)-quinolone] | 102 ± 0.85 | 100 ± 0.73 | 98.4 ± 0.77 | 85.7 ± 1.96 | 16 µg/mL and 51.8 µM |  |
| CCCCCCC#CCCc1cc(=O)c2ccccc2n1CCC [Compound 8c, 1-(n-Propyl)-2-(3′-decynyl)-4(1H)-quinolone] | 103 ± 1.22 | 102 ± 0.42 | 100 ± 0.55 | 100 ± 1.45 | 8 µg/mL and 24.8 µM |  |
| CCCCCCCC#CCCc1cc(=O)c2ccccc2n1C [Compound 8d, 1-Methyl-2-(3'-undecynyl)-4(1H)-quinolone] | 101 ± 1.08 | 99.8 ± 0.52 | 98.7 ± 0.8 | 97.3 ± 0.66 | 8 µg/mL and 25.9 µM |  |
| CCCCCCCC#CCCc1cc(=O)c2ccccc2n1CC [Compound 8e, 1-Ethyl-2-(3'-undecynyl)-4(1H)-quinolone] | 102 ± 1.05 | 101 ± 1.42 | 100 ± 0.56 | 100 ± 1.05 | 8 µg/mL and 24.8 µM |  |
| CCCCCCCC#CCCc1cc(=O)c2ccccc2n1CCC [Compound 8f, 1-(n-Propyl)-2-(3'-undecynyl)-4(1H)-quinolone] | 100 ± 1.05 | 101 ± 1.28 | 91.7 ± 2.77 | 70.9 ± 8.50 | 4 µg/mL and 11.9 µM |  |
| CCCCCCCCC#Cc1cc(=O)c2ccccc2n1CC [Compound 8g, 1-Ethyl-2-(1'-decynyl)-4(1H)-quinolone] | 101 ± 0.97 | 98.7 ± 2.97 | 56.5 ± 2.03 | 12.1 ± 4.79 | 2 µg/mL and 6.5 µM | MIC (M. fortuitum (ATCC 6841)): 8 µg/mL and 25.9 µM; MIC (M. phlei (ATCC 11758)): 4 µg/mL and 12.9 µM; MIC (M. smegmatis mc^2155): 4 µg/mL and 12.9 µM |
| CCCCCCCCC#Cc1cc(=O)c2ccccc2n1CCC [Compound 8h, 1-(n-Propyl)-2-(1'-decynyl)-4(1H)-quinolone] | 103 ± 1.38 | 101 ± 2.47 | 39.5 ± 3.59 | 14.1 ± 7.83 | 4 µg/mL and 12.4 µM |  |
| CCCCCCCCC#Cc1cc(=O)c2ccccc2n1CCCC [Compound 8i, 1-(n-Butyl)-2-(1'-decynyl)-4(1H)-quinolone] | 103 ± 3.13 | 101 ± 0.81 | 67.2 ± 9.90 | 28.7 ± 8.95 | 4 µg/mL and 11.9 µM |  |
| CCCCCCCCC#CCCc1cc(=O)c2ccccc2n1C [Compound 8j, 1-Methyl-2-(3'-dodecynyl)-4(1H)-quinolone] | 97.6 ± 1.03 | 96.7 ± 1.49 | 95.1 ± 0.81 | 95.84 ± 0.96 | 4 µg/mL and 12.4 µM |  |
| CCCCCCCCC#CCCc1cc(=O)c2ccccc2n1CC [Compound 8k, 1-Ethyl-2-(3'-dodecynyl)-4(1H)-quinolone] | 97.6 ± 1.69 | 95.1 ± 1.04 | 94.7 ± 0.92 | 74.8 ± 1.99 | 4 µg/mL and 11.9 µM | melting point: 66 to 68 °C |
| CCCCCCCCCCC#CCCc1cc(=O)c2ccccc2n1CC [Compound 8p, 1-Ethyl-2-(3'-tetradecynyl)-4(1H)-quinolone] | 97.3 ± 1.37 | 95.4 ± 0.76 | 93.3 ± 1.13 | 8.75 ± 9.35 | 1 µg/mL and 2.7 µM | MIC (M. fortuitum (ATCC 6841)): 4 µg/mL and 10.9 µM; melting point: 74 to 76 °C; MIC (M. phlei (ATCC 11758)): 2 µg/mL and 5.5 µM; MIC (M. smegmatis mc^2155): 1 µg/mL and 2.7 µM |
| CCCCCCCCCCCCC#CCCc1cc(=O)c2ccccc2n1C [Compound 8s, 1-Methyl-2-(3′-hexadecynyl)-4(1H)-quinolone] | 93.9 ± 0.61 | 92.2 ± 0.70 | 58.9 ± 3.65 | 41.5 ± 9.49 | 128 µg/mL and 338 µM | melting point: 58 to 61 °C |
| CCCCCCCCCCCCCC#Cc1cc(=O)c2ccccc2n1C [Compound 8t, 1-Methyl-2-(1'-pentadecynyl)-4(1H)-quinolone] | 100 ± 1.01 | 100 ± 1.38 | 98.8 ± 1.28 | 93.8 ± 0.96 | 128 µg/mL and 351 µM |  |
| O=c1cc(/C=C/CCCCCCCCCCBr)n(C2CC2)c2ccccc12 [Compound 18a, 1-Cyclopropyl-2-[(E)-12-bromodec-1'-enyl]-4(1H)-quinolone] |  |  |  |  | 8 µg/mL and 18.6 µM | melting point: 85 to 87 °C |
| O=c1cc(/C=C/CCCCCCCCCCCBr)n(C2CC2)c2ccccc12 [Compound 18b, 1-Cyclopropyl-2-[(E)-13-bromotridec-1'-enyl)-4(1H)-quinolone] |  |  |  |  | 8 µg/mL and 18.1 µM | melting point: 61 to 63 °C |
| Cn1c(/C=C/CCCCCCCCCCBr)cc(=O)c2ccccc21 [Compound 19a, 1-Methyl-2-[(E)-12-bromodec-1'-enyl]-4(1H)-quinolone] |  |  |  |  | 0.5 µg/mL (≈ 1.24 µM) | MIC (M. fortuitum (ATCC 6841)): 1 µg/mL and 2.5 µM; MIC (M. phlei (ATCC 11758)): 1 µg/mL and 2.5 µM; MIC (M. smegmatis mc^2155): 1 µg/mL and 2.5 µM |
| Cn1c(/C=C/CCCCCCCCCCCBr)cc(=O)c2ccccc21 [Compound 19b, 1-Methyl-2-[(E)-13-bromotridec-1'-enyl)-4(1H)-quinolone] |  |  |  |  | 0.5 µg/mL (≈ 1.19 µM) | MIC (M. fortuitum (ATCC 6841)): 1 µg/mL and 2.4 µM; MIC (M. phlei (ATCC 11758)): 1 µg/mL and 2.4 µM; MIC (M. smegmatis mc^2155): 1 µg/mL and 2.4 µM |
| CCCCCCCCCCC/C=C/c1cc(=O)c2ccccc2n1C1CC1 [Compound 22a, 1-Cyclopropyl-2-[(E)-1′-tridecenyl]-4(1H)-quinolone] |  |  |  |  | 128 µg/mL and 351 µM | melting point: 86 to 88 °C |
| CCCCCCCCCCCC/C=C/c1cc(=O)c2ccccc2n1C1CC1 [Compound 22b, 1-Cyclopropyl-2-[(E)-1′-tetradecenyl]-4(1H)-quinolone] |  |  |  |  | 128 µg/mL and 338 µM | melting point: 96 to 98 °C |
| CC[C@@H](CO)NCCN[C@@H](CC)CO [Ethambutol, reference compound] |  |  |  |  | 2 µg/mL and 9.8 µM | MIC (M. fortuitum (ATCC 6841)): 8 µg/mL and 39.2 µM; MIC (M. phlei (ATCC 11758)): 4 µg/mL and 19.6 µM; MIC (M. smegmatis mc^2155): 4 µg/mL and 19.6 µM |
| NNC(=O)c1ccncc1 [Isoniazid, reference compound] |  |  |  |  | 4 µg/mL and 29.2 µM | MIC (M. fortuitum (ATCC 6841)): 2 µg/mL and 14.6 µM; MIC [3]: 0.1 µg/mL and 0.7 µM; MIC (M. phlei (ATCC 11758)): 8 µg/mL and 58.3 µM; MIC (M. smegmatis mc^2155): 4 µg/mL and 29.2 µM |
| CCn1cc(C(=O)O)c(=O)c2cc(F)c(N3CCNCC3)cc21 [Norfloxacin, reference compound] |  |  |  |  |  | MIC (S. aureus EMRSA-15): 0.5 µg/mL and 1.6 µM; MIC (S. aureus EMRSA-16): 128 µg/mL and 401 µM |
| CN(C)[C@@H]1C(O)=C(C(N)=O)C(=O)[C@@]2(O)C(O)=C3C(=O)c4c(O)cccc4[C@@](C)(O)[C@H]3C[C@@H]12 [Tetracycline, reference compound] |  |  |  |  |  | MIC (S. aureus EMRSA-15): 0.25 µg/mL and 0.6 µM; MIC (S. aureus EMRSA-16): 0.25 µg/mL and 0.6 µM |
| CC[C@]1(O)C[C@@H]2CN(CCc3c([nH]c4ccccc34)[C@@](C(=O)OC)(c3cc4c(cc3OC)N(C)[C@H]3[C@@](O)(C(=O)OC)[C@H](OC(C)=O)[C@]5(CC)C=CCN6CC[C@]43[C@@H]65)C2)C1 [Vinblastin, reference compound] |  |  |  |  |  | Metabolic active MRC-5 cells (%) ([1]; 0.12 µM (positive control)): 51.5 ± 2.36% |
